From patent US11739098B2 (BRISTOL-MYERS SQUIBB COMPANY, priority 2017, dated 2023)

Legend:
Format in all cases: cell-based
human TLR7 = biological target: T1, human TLR7 (Homo sapiens, UniProt Q9NYK1); assay: TLR7 inhibition reporter assay (HEK-Blue cells, SEAP reporter, gardiquimod stimulation); conditions: HEK-Blue cells overexpressing human TLR7, SEAP reporter, gardiquimod 7.5 μM
T1 construct: host or cells: HEK-Blue cells (HEK293-derived reporter line)
T1 sequence (Q9NYK1 27-1049): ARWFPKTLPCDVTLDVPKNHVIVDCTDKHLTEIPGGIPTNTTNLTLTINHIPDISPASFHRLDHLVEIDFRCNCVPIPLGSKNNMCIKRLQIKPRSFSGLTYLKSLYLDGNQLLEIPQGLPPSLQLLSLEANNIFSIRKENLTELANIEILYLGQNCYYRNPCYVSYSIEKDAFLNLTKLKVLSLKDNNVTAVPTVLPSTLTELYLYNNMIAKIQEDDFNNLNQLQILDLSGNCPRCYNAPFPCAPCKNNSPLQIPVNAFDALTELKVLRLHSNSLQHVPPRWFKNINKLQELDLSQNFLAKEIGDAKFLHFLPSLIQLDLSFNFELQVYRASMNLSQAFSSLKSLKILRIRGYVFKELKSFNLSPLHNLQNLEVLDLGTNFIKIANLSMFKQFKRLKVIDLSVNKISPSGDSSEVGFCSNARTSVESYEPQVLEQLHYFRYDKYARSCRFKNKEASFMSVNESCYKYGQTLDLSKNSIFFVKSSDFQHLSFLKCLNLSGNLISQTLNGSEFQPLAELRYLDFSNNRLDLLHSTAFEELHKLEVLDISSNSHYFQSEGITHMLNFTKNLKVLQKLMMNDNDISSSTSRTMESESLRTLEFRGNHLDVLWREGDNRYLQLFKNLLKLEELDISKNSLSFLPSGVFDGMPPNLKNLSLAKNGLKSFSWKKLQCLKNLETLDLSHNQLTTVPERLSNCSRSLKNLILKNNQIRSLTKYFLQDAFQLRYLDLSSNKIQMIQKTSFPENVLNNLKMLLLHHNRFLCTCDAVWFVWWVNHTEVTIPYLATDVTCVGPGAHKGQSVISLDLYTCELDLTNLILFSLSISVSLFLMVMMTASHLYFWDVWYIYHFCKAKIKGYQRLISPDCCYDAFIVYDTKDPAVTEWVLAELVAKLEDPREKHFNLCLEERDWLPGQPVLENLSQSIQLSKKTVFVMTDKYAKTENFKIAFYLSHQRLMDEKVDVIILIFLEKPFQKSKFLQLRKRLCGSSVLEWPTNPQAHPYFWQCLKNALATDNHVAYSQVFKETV
Outline: (§1)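 HEK-Blue cells overexpressing human TLR7, TLR8 or TLR9 (NF-κB/AP-1-driven SEAP) pre-treated 30 min at room temperature with compound (0.05 nM–50 μM), then stimulated with gardiquimod 7.5 μM (TLR7), R848 15.9 μM (TLR8) or ODN2006 5 nM (TLR9). SEAP read colorimetrically after 22 h at 37 °C; % inhibition calculated.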

human TLR8 = biological target: T2, human TLR8 (Homo sapiens, UniProt Q9NR97); assay: TLR8 inhibition reporter assay (HEK-Blue cells, SEAP reporter, R848 stimulation); conditions: HEK-Blue cells overexpressing human TLR8, SEAP reporter, R848 15.9 μM
T2 construct: host or cells: HEK-Blue cells (HEK293-derived reporter line)
T2 sequence (Q9NR97 27-1041): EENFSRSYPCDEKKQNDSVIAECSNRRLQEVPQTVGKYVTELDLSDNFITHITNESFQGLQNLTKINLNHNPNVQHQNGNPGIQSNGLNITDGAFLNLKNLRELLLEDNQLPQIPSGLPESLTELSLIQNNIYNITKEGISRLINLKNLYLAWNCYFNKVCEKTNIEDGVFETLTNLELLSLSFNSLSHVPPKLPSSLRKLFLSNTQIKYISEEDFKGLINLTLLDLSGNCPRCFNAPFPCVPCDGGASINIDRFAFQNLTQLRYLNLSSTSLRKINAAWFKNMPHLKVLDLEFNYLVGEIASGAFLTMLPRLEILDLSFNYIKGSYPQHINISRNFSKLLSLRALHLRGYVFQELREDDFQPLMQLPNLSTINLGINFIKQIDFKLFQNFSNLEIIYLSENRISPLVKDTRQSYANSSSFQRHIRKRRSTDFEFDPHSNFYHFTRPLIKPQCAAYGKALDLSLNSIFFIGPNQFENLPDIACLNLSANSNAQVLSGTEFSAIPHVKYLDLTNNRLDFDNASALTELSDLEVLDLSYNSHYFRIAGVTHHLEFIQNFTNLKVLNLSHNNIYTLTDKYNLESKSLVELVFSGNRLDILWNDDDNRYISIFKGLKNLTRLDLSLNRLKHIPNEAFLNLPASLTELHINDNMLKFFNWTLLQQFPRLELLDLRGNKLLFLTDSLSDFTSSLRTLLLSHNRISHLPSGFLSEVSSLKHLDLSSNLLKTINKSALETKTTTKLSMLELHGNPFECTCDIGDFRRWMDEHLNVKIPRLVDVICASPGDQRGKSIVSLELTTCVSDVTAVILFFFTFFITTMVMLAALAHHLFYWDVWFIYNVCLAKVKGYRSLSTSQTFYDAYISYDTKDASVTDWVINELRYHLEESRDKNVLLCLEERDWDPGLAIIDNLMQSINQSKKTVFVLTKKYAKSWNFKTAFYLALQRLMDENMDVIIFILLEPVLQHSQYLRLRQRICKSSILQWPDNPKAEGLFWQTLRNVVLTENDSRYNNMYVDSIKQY
Outline: as §1

human TLR9 = biological target: T3, human TLR9 (Homo sapiens, UniProt Q9NR96); assay: TLR9 inhibition reporter assay (HEK-Blue cells, SEAP reporter, ODN2006 stimulation); conditions: HEK-Blue cells overexpressing human TLR9, SEAP reporter, ODN2006 5 nM
T3 construct: host or cells: HEK-Blue cells (HEK293-derived reporter line)
T3 sequence (Q9NR96 26-1032): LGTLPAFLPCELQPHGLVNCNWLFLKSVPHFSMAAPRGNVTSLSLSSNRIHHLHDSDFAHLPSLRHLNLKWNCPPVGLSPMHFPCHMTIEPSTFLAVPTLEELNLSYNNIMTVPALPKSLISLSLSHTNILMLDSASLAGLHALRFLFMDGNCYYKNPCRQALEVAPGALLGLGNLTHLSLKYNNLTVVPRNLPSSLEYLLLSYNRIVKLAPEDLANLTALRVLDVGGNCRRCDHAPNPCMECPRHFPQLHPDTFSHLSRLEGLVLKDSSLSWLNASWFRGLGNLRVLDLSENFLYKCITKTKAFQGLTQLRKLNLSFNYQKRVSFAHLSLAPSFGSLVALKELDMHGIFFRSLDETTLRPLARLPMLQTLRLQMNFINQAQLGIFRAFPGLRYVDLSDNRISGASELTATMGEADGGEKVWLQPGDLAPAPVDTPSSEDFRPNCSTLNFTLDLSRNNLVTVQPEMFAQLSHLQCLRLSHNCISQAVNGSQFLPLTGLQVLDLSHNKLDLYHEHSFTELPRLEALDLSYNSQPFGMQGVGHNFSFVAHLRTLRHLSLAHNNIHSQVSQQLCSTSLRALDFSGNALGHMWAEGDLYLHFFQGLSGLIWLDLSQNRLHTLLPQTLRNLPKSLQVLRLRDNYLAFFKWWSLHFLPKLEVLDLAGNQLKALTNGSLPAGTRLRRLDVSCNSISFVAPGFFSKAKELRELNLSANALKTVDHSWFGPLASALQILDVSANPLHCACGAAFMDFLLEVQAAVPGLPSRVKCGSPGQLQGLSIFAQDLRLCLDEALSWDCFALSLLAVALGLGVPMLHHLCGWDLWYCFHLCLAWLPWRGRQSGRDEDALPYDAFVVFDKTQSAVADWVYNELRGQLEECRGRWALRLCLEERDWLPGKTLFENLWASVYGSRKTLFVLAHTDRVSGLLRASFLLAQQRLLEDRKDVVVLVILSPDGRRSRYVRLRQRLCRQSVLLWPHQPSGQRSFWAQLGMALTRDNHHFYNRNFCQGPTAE
Outline: as §1

| Compound | IC50 (human TLR7) [nM] | IC50 (human TLR8) [nM] | IC50 (human TLR9) [nM] |
| --- | --- | --- | --- |
| CC(C)c1c(-c2ccc3nncn3n2)[nH]c2ccc(C3CCNCC3)cc12 [Example 185, 6-(3-isopropyl-5-(piperidin-4-yl)-1H-indol-2-yl)-[1,2,4] triazolo[4,3-b]pyridazine] | 100 to 1000 | 100 to 1000 | 1000 to 50000 |
| CC(C)c1c(-c2ccnc3[nH]ncc23)[nH]c2ccc(C3CCN(C(=O)Cn4ccnc4)CC3)cc12 [Example 565, 2-(1H-imidazol-1-yl)-1-(4-(3-isopropyl-2-(1H-pyrazolo[3,4-b]pyridin-4-yl)-1H-indol-5-yl)piperidin-1-yl)ethan-1-one] | < 100 | < 100 | 1000 to 50000 |
| Cc1nnn2ccc(-c3[nH]c4ccc(C5CCN(C(=O)CN(C)C)CC5)cc4c3C(C)C)cc12 [Example 487, 2-(dimethylamino)-1-(4-(3-isopropyl-2-(3-methyl-[1,2,3]triazolo[1,5-a]pyridin-5-yl)-1H-indol-5-yl)piperidin-1-yl)ethan-1-one] | < 100 | < 100 | 1000 to 50000 |
| Cc1cc(-c2[nH]c3ccc(C4CCN(CC(=O)N(C)C)CC4)cc3c2C(C)C)cc2nccnc12 [Example 395, 2-(4-(3-isopropyl-2-(8-methylquinoxalin-6-yl)-1H-indol-5-yl)piperidin-1-yl)-N,N-dimethylacetamide] | < 100 | < 100 | 1000 to 50000 |
| CC(C)c1c(-c2cnc3ccnn3c2)[nH]c2ccc(C3CCN(C(=O)[C@@H]4NCC[C@H]4O)CC3)cc12 [Example 513, ((2R,3R)-3-hydroxypyrrolidin-2-yl)(4-(3-isopropyl-2-(pyrazolo[1,5-a]pyrimidin-6-yl)-1H-indol-5-yl)piperidin-1-yl)methanone] | 1000 to 50000 | > 3130 | 1000 to 50000 |
| CNC(=O)CN1CCC(c2ccc3[nH]c(-c4cn(C)c5ncccc45)c(C(C)C)c3c2)CC1 [Example 293, 2-(4-(3-isopropyl-2-(1-methyl-1H-pyrrolo[2,3-b]pyridin-3-yl)-1H-indol-5-yl)piperidin-1-yl)-N-methylacetamide] | < 100 | < 100 | 1000 to 50000 |
| Cc1cc2ncnn2nc1-c1[nH]c2ccc(C3CCN(C(=O)CN(C)C)CC3)cc2c1C(C)C [Example 455, 2-(dimethylamino)-1-(4-(3-isopropyl-2-(7-methyl-[1,2,4]triazolo[1,5-b]pyridazin-6-yl)-1H-indol-5-yl)piperidin-1-yl)ethan-1-one] | < 100 | < 100 | 1000 to 50000 |
| CC(C)c1c(-c2ccc3nc(N)cn3n2)[nH]c2ccc(C3CCNCC3)cc12 [Example 24, 6-(3-isopropyl-5-(piperidin-4-yl)-1H-indol-2-yl)imidazo[1,2-b]pyridazin-2-amine] | 1000 to 50000 | 1000 to 50000 | 1000 to 50000 |

Results, then the compound that gave them:

| IC50 (human TLR7) [nM] | IC50 (human TLR8) [nM] | IC50 (human TLR9) [nM] | Compound |
| --- | --- | --- | --- |
| < 100 | < 100 | 100 to 1000 | CC(C)c1c(-c2ccc3nccn3c2)[nH]c2ccc(C3CCN(C)CC3)cc12 [Example 947, 6-(3-isopropyl-5-(1-methylpiperidin-4-yl)-1H-indol-2-yl)imidazo[1,2-a]pyridine] |
| 1000 to 50000 | 100 to 1000 | 100 to 1000 | COCC(CO)N1CCC(c2ccc3[nH]c(-c4cc(C)n5ccnc5c4)c(C(C)C)c3c2)CC1 (stereo not drawn) [Example 754, 2-(4-(3-isopropyl-2-(5-methylimidazo[1,2-a]pyridin-7-yl)-1H-indol-5-yl)piperidin-1-yl)-3-methoxypropan-1-ol] |
| < 100 | < 100 | 1000 to 50000 | Cc1cc2nnnn2cc1-c1[nH]c2ccc(C3CCN(C4CCOCC4)CC3)cc2c1C(C)C [Example 699, 6-(3-isopropyl-5-(1-(tetrahydro-2H-pyran-4-yl)piperidin-4-yl)-1H-indol-2-yl)-7-methyltetrazolo[1,5-a]pyridine] |
| 100 to 1000 | 100 to 1000 | 100 to 1000 | CC(C)c1c(-c2ccnc3[nH]ncc23)[nH]c2ccc(C3CCN(CCCN4CCCCC4)CC3)cc12 [Example 848, 4-(3-isopropyl-5-(1-(3-(piperidin-1-yl)propyl)piperidin-4-yl)-1H-indol-2-yl)-1H-pyrazolo[3,4-b]pyridine] |
| 100 to 1000 | 100 to 1000 | > 50000 | CC(=O)N1CCC(c2ccc3[nH]c(-c4ccnc5[nH]ncc45)c(C(C)C)c3c2)CC1 [Example 592, 1-(4-(3-isopropyl-2-(1H-pyrazolo[3,4-b]pyridin-4-yl)-1H-indol-5-yl)piperidin-1-yl)ethan-1-one] |
| < 100 | < 100 | 1000 to 50000 | COc1cc(-c2[nH]c3ccc(C4CCN(CCS(C)(=O)=O)CC4)cc3c2C(C)C)nn2ncnc12 [Example 782, 6-(3-isopropyl-5-(1-(2-(methylsulfonyl)ethyl)piperidin-4-yl)-1H-indol-2-yl)-8-methoxy-[1,2,4]triazolo[1,5-b]pyridazine] |
